Results on seven compounds are retold here after PMC6099663, “Structure–Activity Relationship of the Tyrosinase Inhibitors Kuwanon G, Mulberrofuran G, and Albanol B from Morus Species: A Kinetics and Molecular Docking Study” (Molecules : A Journal of Synthetic Chemistry and Natural …, 2018).

In assay [1] the target is T1, mushroom tyrosinase (Agaricus bisporus, UniProt C7FF04). In words: Mushroom tyrosinase inhibitory assay, L-tyrosine oxidation (monophenolase activity). It counts as biochemical. Also noted: purchased Sigma-Aldrich Co. (St. Louis, MO, USA). As for the experimental part:
(§1) Briefly, 10 µL of a specified concentration of each sample solution (1–500 µg/mL) in 10% dimethyl sulfoxide and 20 µL of mushroom tyrosinase (1000 Units/mL) in a 50 mM phosphate buffer (pH 6.5) were added to 170 µL of an assay mixture in a 96-well microplate. […] The reaction mixtures were incubated at 25 °C for 15 s. The absorbance of the mixture at 490 nm was measured using a microplate reader. […] One unit (U) of enzymatic activity referred to the amount of an enzyme capable of converting 1 µM of the L-tyrosine/L-DOPA reaction mixture within 1 min at 280 nm under the specific conditions (25 °C, optimum conditions).

Assay [2] deals with T1, mushroom tyrosinase. The assay can be described thus: Mushroom tyrosinase inhibitory assay, L-DOPA oxidation (diphenolase activity). The note with it: L-DOPA substrate (diphenolase), 25 °C, pH 6.5, mean ± SEM of triplicate. It counts as biochemical. More on the design: purchased Sigma-Aldrich Co. (St. Louis, MO, USA). The protocol:
as §1

Assay [3] relates to tyrosinase. The note with it: cited from earlier work.
The target of assay [4] is T1, mushroom tyrosinase. In words: Enzyme kinetic analysis with tyrosinase (Lineweaver-Burk and Dixon plots, L-tyrosine substrate). The note with it: for Inhibition Mode: Lineweaver–Burk plot, L-tyrosine substrate (monophenolase). The format is biochemical. The protocol:
Kinetic analysis was employed to verify the inhibitory activity of the active compounds and identify the type of inhibition. KG and MG were potent tyrosinase inhibitors as analyzed by Lineweaver–Burk and Dixon plots (Figure 3 and Figure 4). Different concentrations of the substrate (L-tyrosine, 1.0, 0.5, and 0.25 mM) along with the various concentrations of KG (10, 50, and 100 µM) and MG ([…]) were analyzed. […] The Ki values represent the concentrations required to form an enzyme inhibitor complex, so inhibitors with lower Ki values indicate greater tyrosinase inhibition activity for the development of prophylactic and therapeutic agents.
We observed the sample activity by decreasing the L-tyrosine (1.0, 0.5, and 0.25 mM) substrate concentration to determine the tyrosinase inhibitory mechanism. The reaction mixture consisted of a 20 µL test sample at the following test concentrations: 1.6, 8, and 16 µM for MG; 10, 50, and 100 µM for KG. Tyrosinase inhibition was determined at various concentrations of L-tyrosine substrate (1.0, 0.5, and 0.25 mM) in the absence or presence of the test compound concentrations (1.6, 8, and 16 µM for MG; 10, 50, and 100 µM for KG) using Lineweaver-Burk double reciprocal plots that determine enzyme kinetic parameters including Km and Vmax. The enzymatic procedures consisted of the previously described tyrosinase assay methods. The inhibition constant (Ki) was determined from the interpretation of Dixon plots.

The target of assay [5] is mushroom tyrosinase. Also noted: method as in ref 12 (Zheng et al.). Conditions: L-tyrosine substrate; ref 12 (Zheng et al.); read-out: IC50, L-tyrosine oxidation (monophenolase); cited from earlier work.
Assay [6] deals with mushroom tyrosinase. Also noted: method as in ref 13 (Chaita et al.). Conditions: L-DOPA substrate; ref 13 (Chaita et al.); read-out: IC50, mushroom tyrosinase via the L-DOPA pathway; cited from earlier work.
Assay [7] concerns B16F10 cells. More on the design: method as in PMID 25819153. The note with it: 150 µM; cited from earlier work.
Where [8] appears, read: L-tyrosine substrate (monophenolase), 25 °C, pH 6.5, mean ± SEM of triplicate, read-out: IC50 (μM) Value L-Tyrosine.
Where [9] appears, read: read-out: IC50 (μM) Value L-DOPA.

Like-named read-outs stand apart in the source and are kept apart here.

T1 sequence (C7FF04 2-392): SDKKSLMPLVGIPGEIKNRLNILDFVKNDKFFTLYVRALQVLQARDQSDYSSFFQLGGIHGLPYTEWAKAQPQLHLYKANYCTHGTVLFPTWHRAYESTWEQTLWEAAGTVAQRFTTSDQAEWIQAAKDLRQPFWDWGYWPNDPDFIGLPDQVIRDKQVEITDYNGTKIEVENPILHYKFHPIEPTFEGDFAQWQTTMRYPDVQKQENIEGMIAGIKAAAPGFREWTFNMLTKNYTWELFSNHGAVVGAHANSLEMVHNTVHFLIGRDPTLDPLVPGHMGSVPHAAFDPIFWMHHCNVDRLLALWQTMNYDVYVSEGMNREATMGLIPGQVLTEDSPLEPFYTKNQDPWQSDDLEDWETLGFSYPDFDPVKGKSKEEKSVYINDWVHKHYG

On to `CC1=CCCCC1` [1-Methyl-1-cyclohexene, reference compound], for which the IC50 in assay [1] (setting [8]) and in assay [2] (setting [9]) was more than 1000 µM each time.
Consider `Cc1cc2c3c(c1)-c1c(O)cc(-c4cc5ccc(O)cc5o4)cc1OC3(c1ccc(O)cc1O)Oc1cc(O)ccc1-2` (centres unmarked) [Albanol B], for which the “IC50 (μM) Value L-Tyrosine” value in assay [1] (L-tyrosine substrate (monophenolase), 25 °C, pH 6.5, mean ± SEM of triplicate) is “inactive”. In addition, the IC50 in assay [1] (setting [8]) and in assay [2] (setting [9]) was more than 350 µM throughout. Also, the “IC50 (μM) Value L-DOPA” value in assay [2] was “inactive”.
Take `O=C(O)/C=C/c1ccccc1` [Cinnamic acid]: the “inhibition type toward tyrosinase” value in assay [3] (interacted with secondary binding sites when catalytic pocket occupied with tropolone, ref 34 (Hassani et al.)) is recorded as “mixed type inhibitor”.
In the case of `O=c1cc(CO)occ1O` [Kojic acid], in assay [3], the “inhibition type toward tyrosinase” value is “selective competitive inhibitor”.
For the compound `CC(C)=CCc1c(-c2ccc(O)cc2O)oc2c(C3C=C(C)CC(c4ccc(O)cc4O)C3C(=O)c3ccc(O)cc3O)c(O)cc(O)c2c1=O` (centres unmarked) [Kuwanon G], in assay [4], the Ki – broadly, a dissociation constant, usually derived from enzyme kinetics or from competition with a known ligand – is 18.7 µM. For the same compound, the “Inhibition Mode” value in assay [4] is “Competitive”. Further, the IC50 (usually the midpoint of a concentration-inhibition curve) in assay [5] is more than 200 µM; in assay [6], 27.2 µM; in assay [1], 67.6 ± 2.11 µM; in assay [2] (IC50 (μM) Value L-DOPA) it was 44 µM.
In the case of `CC1=C[C@H]2c3c(O)cc(-c4cc5ccc(O)cc5o4)cc3O[C@@]3(c4ccc(O)cc4O)Oc4cc(O)ccc4[C@H](C1)[C@@H]23` [Mulberrofuran G], in assay [4] (Dixon plot, L-tyrosine substrate, read-out: Inhibition Constant (Ki)), the Ki was found to be 5.19 µM. Moreover, the “Inhibition Mode” value in assay [4] is recorded as “Competitive”. Moreover, the results for the IC50 in assay [5], in assay [1] (setting [8]) and in assay [2] (setting [9]) were 17.5 µM, 6.35 ± 0.45 µM and 106 µM, respectively.
Consider `C=C1CC/C=C(\C)CC[C@@H]2[C@@H]1CC2(C)C` [β-caryophyllene], for which the intracellular tyrosinase activity entry in assay [7] was “decreased”.
